pEC50, pIC50: −log10 of the molar value.
Columns and labels:
[1] = tested on: OVA-sensitized and challenged BALB/c mice; assay: Inflammatory cells in BALF; assay type: in vivo, mouse
Protocol: Ten female BABL/c mice in each group were sensitized by an intraperitoneal (i.p.) injection of 20 μg of OVA emulsified in 2.25 mg aluminum hydroxide gel in a total volume of 100 μL on days 0 and 14. The mice were challenged via the airway by 1% OVA in saline for 30 min on Days 28, 29 and 30 by ultrasonic nebulization. Six weeks after the last of three primary OVA challenges, the mice were exposed to 1% OVA for 30 min by nebulization as a secondary challenge. AHR was assessed on Day 74 (48 h after 1% OVA provocation) in each group. […] For comparison, sham-treated mice were sensitized but challenged with saline instead of 1% OVA (non-challenged). The vehicle, a mixture of alcohol : DMSO : 30% HPβCD : saline (0.5 : 0.5 : 1 : 8 , v/v), or S-petasin was injected at a volume of 0.01 mL/g of body weight. AHR was measured in unrestrained animals by barometric plethysmography using a whole-body plethysmograph (WBP) and analyzed using software of Life Science Suite P3 Analysis Modules (Gould, LDS Test and Measurement LLC, Valley View, OH, USA). The mice were placed into the main chamber of the WBP, and the baseline enhanced pause (P enh) value was determined. Then the mice were nebulized first with phosphate-buffered saline (PBS), and subsequently with increasing doses (6.25–50 mg/mL) of MCh for 3 min for each nebulization, followed by readings of breathing parameters for 3 min after each nebulization with determination of P enh values. Twenty-four hours after the P enh determination, these mice were anesthetized with pentobarbital (50 mg/kg, i.p.), and lavaged via a tracheal tube with PBS (1 × 1.0 mL, 37°C). After lavage, blood was collected from the jugular vein and allowed to sit so that it would coagulate. The collected bronchoalveolar lavage fluid (BALF) and coagulated blood were, respectively, centrifuged at 630 g for 7 min and at 3700 g for 10 min at 4°C, respectively. After centrifugation, the supernatants of BALF and serum were stored at −20°C until the determinations of cytokines, including interleukin (IL)-2, IL-4, IL-5, tumor necrosis factor (TNF)-α and interferon (IFN)-γ by flow cytometric methods using mouse Th1/Th2 cytokine CBA kits, of total immunoglobulin E (IgE), and of total IgG2a using enzyme-linked immunosorbent assay (ELISA) kits (Pharmingen, San Diego, CA, USA) according to the respective recommendations of the manufacturer. OVA-specific IgE was measured as described previously with some modifications. Wells were coated with 100 μL of OVA (20 μg/mL) instead of the capture antibody. Levels are expressed in arbitrary units, where one arbitrary unit equals the optical density of the sample divided by the optical density of unchallenged mouse serum or BALF (standard). The pellet from BALF was re-suspended in ACK lysing buffer (1.658 g NH4Cl, 0.2 g KHCO3 and 1.44 mg EDTA in 200 mL of water) to lyse the residual erythrocytes in each sample. The number of inflammatory cells was counted using a hemocytometer (Hausser Scientific, Horsham, PA, USA). Cytospun slides were stained and differentiated in a blinded fashion by counting at least 100 cells under light microscopy.

[2] = Solubility limit of S-petasin in the binding assay; assay type: physicochemical; settings: reaction buffer of binding assay, aqueous buffer; read-out: Highest attainable concentration owing to solubility
[3] = tested on: high-affinity rolipram binding sites (HARBSs) of guinea pig brain cell membranes; assay: Displacement of [3H]-rolipram (PDE4H determination)
Protocol: When the above-described guinea pigs were sacrificed, the whole brains were removed and homogenized with a glass/Teflon homogenizer (Glas-Col, Terre Haute, IN, USA) in 10 volumes of cold medium (pH 6.5) containing 20 mM Bis-Tris, 2 mM benzamidine, 2 mM EDTA, 50 mM sodium chloride, 0.1 mM PMSF and 1 mM dithiothreitol. At 4°C, the homogenate was centrifuged at 170 g for 5 min to remove connective tissues and blood vessels. The suspended homogenate was then re-centrifuged at 40 000 g for 30 min to separate the cytosolic and particulate portions. The particulate portion was re-suspended in a suspension at a concentration of 400 mg/mL (wet weight/volume), after washing three times with homogenizing buffer. The particulate portion mainly consisted of cell membranes. The binding ability of S-petasin (3–300 μM) or Ro 20-1724 (1–10,000 nM), a reference drug, to high-affinity rolipram binding sites (HARBSs) of the membranes was determined by replacing 2 nM [^3H]-rolipram in a reaction buffer at 30°C for 1 h, according to the method described by previous investigators and modified by us. Briefly, the reaction buffer consisted of 50 mM Tris-HCl and 5 mM MgCl2 (pH 7.5). The total volume of the reaction mixture was 25 μL, consisting of 10 μL of particulate suspension, 10 μL of [^3H]-rolipram and 5 μL of S-petasin or Ro 20-1724. After 1 h, the reaction was terminated by moving the reaction vessel into crushed ice. Then the reaction mixture was transferred onto Whatman GF/B glass-fiber filters, which were soaked in a 0.3% polyethyleneimine solution in a mini-funnel. The reaction mixture was filtered by centrifuging at 90 g for 10 s, and the filtrate was collected into a 1.5 mL Eppendorf tube with a top adapted to the outlet of the mini-funnel. The filters were washed with 300 μL of reaction buffer three times each in the same way, and transferred into 2 mL of cocktail for radiation counting (total binding) using a β-scintillation counter (Beckman, Fullerton, CA, USA). Non-specific binding, which was defined in the presence of 10 μM Ro 20-1724, was subtracted from the total binding to yield the specific binding. The effective concentration (EC50) values of S-petasin and Ro 20-1724, at which a half of [^3H]-rolipram bound onto HARBSs of cell membranes was displaced, were defined as the PDE4H values, and these were related to any adverse effects, such as nausea, vomiting and gastric hypersecretion.

[4] = tested on: cAMP-phosphodiesterase (PDE); design: method as in PMID 11345692; settings: cited from earlier work
guinea pig trachea = settings: precontracted by histamine, carbachol (CCh), KCl or leukotriene (LT) D4; read-out: IC50 in relaxing guinea pig trachea; cited from earlier work

Q: Which results are given for `C=C(C)[C@@H]1C[C@@]2(C)C(=CC1=O)CC[C@@H](OC(=O)/C=C\SC)[C@@H]2C` [S-Petasin]?
A: Increase in lymphocytes in BALF ([1]; 30 μmol/kg s.c., exception at 10 μmol/kg): significantly suppressed; Increase in eosinophils in BALF ([1]; 10–30 μmol/kg s.c.): significantly suppressed; Increase in neutrophils in BALF ([1]; 10–30 μmol/kg s.c.): significantly suppressed; Increase in total inflammatory cells in BALF ([1]; 10–30 μmol/kg s.c.): significantly suppressed; Macrophages in BALF ([1]; 10–30 μmol/kg s.c.): not affected; solubility [2]: ≤ 300 µM; pEC50 ([3]; HARBSs of guinea pig brain cell membranes): < 3.52; percentage displacement of [3H]-rolipram binding ([3]; at the highest concentration (300 μM), 2 nM [3H]-rolipram): 28.0%±5.7%; Inhibition of cAMP-phosphodiesterase (PDE) activity [4]: inhibited; pIC50 (guinea pig trachea): > 5.00

Reference: paper PMC3094704, “S-Petasin, the Main Sesquiterpene of Petasites formosanus, Inhibits Phosphodiesterase Activity and Suppresses Ovalbumin-Induced Airway Hyperresponsiveness” (Evidence-based Complementary and Alternative Medicine : eCAM, 2011)
